Experimental data from patent US20230149381A1, “BREAST CANCER THERAPEUTIC AGENT” (Eisai R&D Management Co., Ltd., priority 2020, published 2023).

Assays:
[1] = system: human breast cancer patient-derived tumor (OD-BRE-0438); assay: Growth inhibition effect of compound A after palbociclib and fulvestrant administration, patient-derived tumor graft in mice; assay type: in vivo; conditions: NOD-SCID mice, after 14 days palbociclib + fulvestrant
Experimental: Example 1 Growth inhibition effect of compound A after palbociclib and fulvestrant administration for human breast cancer patient-derived tumor (OD-BRE-0438) Using NOD-SCID mice (NOD.CB17-Prkdcscid/J, female, Charles River Japan), with 5 to 6 mice per group, the antitumor effect of administering compound A after completion of an administration period with palbociclib and fulvestrant was evaluated.
OD-BRE-0438 is a tumor line from an estrogen receptor-positive breast cancer patient, established by Oncodesign Co. The tumor slices were grafted under the mouse skin and subcultured. The tumors excised from the mice were cut to about 4 mm-square, and a trocar (φ3.5 mm) was used for grafting under the skin of the right flank of each mouse.
A 1 mg/mL solution of β-estradiol (FujiFilm-Wako) was prepared with 99.5% ethanol (FujiFilm-Wako). It was then adjusted to a final concentration of 2.5 μg/mL using supply-use sterilized water. The mouse were given free access to food from the day of tumor grafting until the end of the test.
(§1) The long and short diameters of the tumors were measured using an electronic digital caliper (Digimatic™ caliper by Mitsutoyo Corp.). The tumor volumes were calculated by the following formula.
(§2) Tumor volume (mm^3)=Long diameter (mm)×short diameter (mm)×short diameter (mm)/2
Commercially available palbociclib isethionate (Selleck Chemicals) was adjusted to 10 mg/mL concentration with 50 mM sodium lactate buffer (pH 4.0). A commercially available fulvestrant formulation (trade name: Faslodex Intramuscular Injection 250 mg, by AstraZeneca) was used directly.
Palbociclib and fulvestrant administration was initiated from the 26th day after tumor grafting. Palbociclib was orally administered once per day for 14 days at a dosage of 100 mg/kg (10 mL/kg). Fulvestrant was hypodermically injected on the 26th and 33rd day, at a dosage of 250 mg/kg (5 mL/kg).
On the 40th day, the mice were divided into groups in such a manner that the average tumor volumes were approximately the same in each group. The control group consisted of 6 mice, and the compound A-administered group consisted of 5 mice, at different dosages.
Compound A was dissolved in purified water to a concentration of 2.5 mg/mL. Compound A was orally administered to the mice in each group at a dose of 25 mg/kg (10 mL/kg) or 50 mg/kg (20 mL/kg), once per day for 14 days. The control group was untreated.
The tumor volume and body weight of each mouse were measured on day 3, 7, 10 and 14 after starting administration of compound A. The changes in mean tumor volume in each group are shown in Table 1 and FIG. 1.

[2] = system: human breast cancer patient derived tumor (OD-BRE-0438); assay: Growth inhibiting effect of compound A on patient-derived tumor graft in mice (Reference Example 1, no pretreatment); assay type: in vivo; conditions: NOD-SCID mice
Experimental: as §1, §2
Reference Example 1 Growth inhibiting effect of compound A on human breast cancer patient derived tumor (OD-BRE-0438)
The antitumor effect of administering compound A was evaluated using NOD-SCID mice (NOD.CB17-Prkdcscid/J, female, Charles River Japan), with 6 mice per group.
Tumor slices were grafted under the mouse skin and subcultured. The tumors excised from the mice were cut to about 4 mm-square, and a trocar ((φ3.5 mm) was used for grafting under the skin of the right flank of each mouse, for evaluation of the antitumor effect.
A 1 mg/mL solution of β-estradiol (FujiFilm-Wako) was prepared with 99.5% ethanol (FujiFilm-Wako). It was then adjusted to a final concentration of […] using supply-use sterilized water. The mice were given free access to food from the day of tumor grafting until the end of the test.
Compound A was dissolved in purified water to a concentration of 2.5 mg/mL. On the 32nd day after tumor grafting, the mice were divided into groups in such a manner that the average tumor volumes were approximately the same in each group. The tumor volumes were calculated by the same method as Example 1.
Compound A was orally administered to the mice in each group at a dose of 50 mg/kg (20 mL/kg), once per day for 14 days. The control group was untreated.
The tumor volume and body weight of each mouse were measured on day 3, 7, 10 and 14 after starting administration of compound A. The changes in mean tumor volume in each group are shown in Table 2 and FIG. 2.

[3] = Day 0 (baseline at grouping), compound A 50 mg/kg oral once per day
[4] = Day 3, compound A 50 mg/kg oral once per day
[5] = Day 7, compound A 50 mg/kg oral once per day
[6] = Day 10, compound A 50 mg/kg oral once per day
[7] = Day 14, compound A 50 mg/kg oral once per day

CNC(=O)n1ccc2cc(Oc3ccnc(NC(=O)c4ccc(C5CCN(CCO)CC5)cc4)c3)c(OCCOC)cc21 [Compound A, 5-((2-(4-(1-(2-hydroxyethyl)piperidin-4-yl)benzamide)pyridin-4-yl)oxy)-6-(2-methoxyethoxy)-N-methyl-1H-indole-1-carboxamide]
mean tumor volume ([1]; Day 0 (baseline at grouping), compound A 25 mg/kg oral once per day): 261.4 mm^3
mean tumor volume [1, 3]: 262.6 mm^3
mean tumor volume ([1]; Day 3, compound A 25 mg/kg oral once per day): 211.9 mm^3
mean tumor volume [1, 4]: 174.8 mm^3
mean tumor volume ([1]; Day 7, compound A 25 mg/kg oral once per day): 167.6 mm^3
mean tumor volume [1, 5]: 136.1 mm^3
mean tumor volume ([1]; Day 10, compound A 25 mg/kg oral once per day): 138.3 mm^3
mean tumor volume [1, 6]: 110.4 mm^3
mean tumor volume ([1]; Day 14, compound A 25 mg/kg oral once per day): 134.1 mm^3
mean tumor volume [1, 7]: 96.6 mm^3
mean tumor volume [2, 3]: 234.1 mm^3
mean tumor volume [2, 4]: 267.0 mm^3
mean tumor volume [2, 5]: 338.8 mm^3
mean tumor volume [2, 6]: 380.8 mm^3
mean tumor volume [2, 7]: 403.4 mm^3
